From patent US20170281541A1, “LIPOSOME-BASED MUCUS-PENETRATING PARTICLES FOR MUCOSAL DELIVERY” (The Johns Hopkins University, priority 2014, published 2017) come the findings set out here.

SMILES strings stand for the structures.

A short description of the series: CEST imaging in vivo (diaCEST MRI) after intravaginal administration. Set-up: species or system mice. As for the experimental part: Naturally cycling, estrus phase female mice were used for the intravaginal distribution study and the in vivo CEST imaging studies. In brief, female CF-1 mice (6-8 weeks old, Harlan, Indianapolis, Ind.) were housed in a reversed light cycle facility (12-hour light/12-hour dark). Mice were selected for external estrus appearance, which was confirmed upon dissection. All animal studies were performed in accordance to protocols approved by the Institutional Animal Care and Use Committee (IACUC) at the Johns Hopkins University.
Mice were anesthetized using isoflurane and positioned in a 11.7 T horizontal bore Bruker Biospec scanner (Bruker Biosciences, Billerica, Mass.). Twenty microliters of BA-loaded 7 mol %-PEG liposome suspension (4 mg BA/mL) or free BA solution at a equivalent dose were administered intravaginally via a customized catheter. Imaging was performed before and at 30 min-intervals after the intravaginal administration up to 1.5 h. Axial images were acquired at ˜2 mm above the tip of the catheter that was inserted ˜5 mm deep from the vaginal opening. […]
MR images were processed using custom-written Matlab scripts with the CEST contrast quantified by calculating the asymmetry in the magnetization transfer ratio (MTRasym) using MTRasym=(S−Δω−S+Δω)/S0 for NH protons at the frequency offset of BA from water (Δω)=5 ppm. […]

As to `O=C1CC(=O)NC(=O)N1` [unencapsulated BA, barbituric acid], the “vaginal retention time / duration of CEST contrast” value (intravaginal, mice, imaging up to 1.5 h) is listed as around 30 min. In addition, where the note is “liposomal vs unencapsulated BA”, the “vaginal retention by diaCEST MRI” value is “much shorter vaginal retention time”.
